We go through 25 compounds from patent US7935724B2, “Thiophene and benzothiophene hydroxamic acid derivatives” (Merck HDAC Research, LLC, priority 2003, dated 2011).

The structures appear in SMILES notation.

The first test deals with T1, histone deacetylase, subtype 1 (HDAC1) (Homo sapiens, UniProt Q13547).
T1 construct: Flag; made in house
T1 sequence (Q13547 whole entry): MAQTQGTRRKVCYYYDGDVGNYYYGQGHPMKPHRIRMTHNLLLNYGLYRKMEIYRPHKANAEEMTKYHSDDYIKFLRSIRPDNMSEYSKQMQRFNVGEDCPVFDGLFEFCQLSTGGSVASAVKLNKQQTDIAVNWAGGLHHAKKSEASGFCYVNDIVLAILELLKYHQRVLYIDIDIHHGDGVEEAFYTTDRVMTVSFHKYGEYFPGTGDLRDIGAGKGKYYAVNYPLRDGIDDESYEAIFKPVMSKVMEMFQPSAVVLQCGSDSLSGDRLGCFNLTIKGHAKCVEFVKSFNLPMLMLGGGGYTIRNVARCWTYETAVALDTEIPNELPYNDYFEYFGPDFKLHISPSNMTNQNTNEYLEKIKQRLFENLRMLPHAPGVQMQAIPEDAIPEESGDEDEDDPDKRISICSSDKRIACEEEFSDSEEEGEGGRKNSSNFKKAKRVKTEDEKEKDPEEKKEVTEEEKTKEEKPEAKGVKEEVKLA
Put plainly: HDAC1-Flag assay (in vitro deacetylation assay). It is filed as biochemical. The settings on record: Table 1, benzothiophene backbone; concentration for 50% inhibition of deacetylation; substrate at Km; unit inferred, text gives nm; read-out: HDAC Inhibition. The procedure: Novel compounds were tested for their ability to inhibit histone deacetylase, subtype 1 (HDAC1) using an in vitro deacetylation assay. The enzyme source for this assay was an epitope-tagged human HDAC1 complex immuno-purified from stably expressing mammalian cells. The substrate consisted of a commercial product containing an acetylated lysine side chain (BIOMOL Research Laboratories, Inc., Plymouth Meeting, Pa.). Upon deacetylation of the substrate by incubation with the purified HDAC1 complex, a fluorophore is produced that is directly proportional to the level of deacetylation.
For the compound `O=C(CN1CCN(c2ncccn2)CC1)Nc1ccc2cc(C(=O)NO)sc2c1` [Compound 101], the IC50 is 0.059 ± 0.007 µM.

As to `COc1ccc(CC(=O)Nc2ccc3cc(C(=O)NO)sc3c2)cc1` [Compound 89], the IC50 stood at 0.0195 ± 0.0007 µM.

As to `O=C(NO)c1cc2cc(CNCCCCc3ccccc3)ccc2s1` [Compound 156], the IC50 is 0.275 ± 0.0346 µM.

Take `O=C(Cc1ccccc1)Nc1ccc2cc(C(=O)NO)sc2c1` [Compound 6]: the IC50 was 0.0115 ± 0.0021 µM.

As for `O=C(CN(CC(=O)Nc1ccccc1)c1ccc2cc(C(=O)NO)sc2c1)Nc1ccccc1` [Compound 178], the IC50 stood at 0.0065 ± 0.0007 µM.

On to `COc1cccc(CNCc2ccc3cc(C(=O)NO)sc3c2)c1` [Compound 186], for which the IC50 amounted to 0.0555 ± 0.0091 µM.

On to `O=C(Cc1ccc(Cl)cc1)Nc1ccc2cc(C(=O)NO)sc2c1` [Compound 88], for which the IC50 amounted to 0.019 ± 0.0056 µM.

As for `CCC(C(=O)Nc1ccc2cc(C(=O)NO)sc2c1)c1ccccc1` (centres unmarked) [Compound 98], the IC50 was determined as 0.0415 ± 0.0021 µM.

Consider `O=C(NO)c1cc2ccc(NS(=O)(=O)c3cccc4ccccc34)cc2s1` [Compound 13], for which the IC50 came out at 0.026 ± 0.0014 µM.

For the compound `CC(C(=O)Nc1ccc2cc(C(=O)NO)sc2c1)c1ccccc1` (centres unmarked) [Compound 123], the IC50 came to 0.018 ± 0.0056 µM.

On to `O=C(NO)c1cc2ccc(CNCCc3c[nH]c4ccccc34)cc2s1` [Compound 188], for which the IC50 is 0.0825 ± 0.0162 µM.

Regarding `O=C(NO)c1cc2ccc(NS(=O)(=O)c3ccc4ccccc4c3)cc2s1` [Compound 14], the IC50 is 0.0215 ± 0.0035 µM.

Take `O=C(NO)c1cc2cc(CNCc3ccc(Cl)cc3)ccc2s1` [Compound 153]: the IC50 worked out at 0.124 ± 0.024 µM.

With `O=C(CN(Cc1ccccc1)Cc1ccccc1)Nc1ccc2cc(C(=O)NO)sc2c1` [Compound 93], the IC50 is 0.316 ± 0.0565 µM.

In the case of `O=C(NO)c1cc2cc(NC(=O)C(c3ccccc3)c3ccccc3)ccc2s1` [Compound 39], the IC50 came out at 0.189 ± 0.0049 µM.

`COc1ccc(CNCc2ccc3sc(C(=O)NO)cc3c2)cc1` [Compound 162]: the IC50 amounted to 0.11 ± 0.0141 µM.

As for `O=C(CN(CC(=O)Nc1ccccc1)c1ccc2sc(C(=O)NO)cc2c1)Nc1ccccc1` [Compound 177], the IC50 amounted to 0.0573 ± 0.0185 µM.

Regarding `O=C(NO)c1cc2cc(CNCCc3ccccc3)ccc2s1` [Compound 151], the IC50 amounted to 0.203 ± 0.0148 µM.

In the case of `O=C(CN1CCN(c2ccccc2Cl)CC1)Nc1ccc2cc(C(=O)NO)sc2c1` [Compound 119], the IC50 amounted to 0.0366 ± 0.0132 µM.

Consider `CCC(C(=O)Nc1ccc2cc(C(=O)NO)sc2c1)c1ccccc1` (centres unmarked) [Compound 181], for which the IC50 came out at 0.0595 ± 0.0035 µM.

As for `O=C(NO)c1cc2ccc(NC(=O)C3(c4ccc(Cl)cc4)CCC3)cc2s1` [Compound 127], the IC50 worked out at 0.115 ± 0.0098 µM.

As to `O=C(NO)c1cc2cc(CNCCc3c[nH]c4ccccc34)ccc2s1` [Compound 145], the IC50 stood at 0.151 ± 0.0282 µM.

Regarding `O=C(Cc1cccnc1)Nc1ccc2cc(C(=O)NO)sc2c1` [Compound 110], the IC50 was found to be 0.061 ± 0.0155 µM.

Take `CCC(C(=O)Nc1ccc2cc(C(=O)NO)sc2c1)c1ccccc1` (centres unmarked) [Compound 180]: the IC50 is 0.0185 ± 0.0021 µM.

Turning to `O=C(CN1CCN(C(=O)OCc2ccccc2)CC1)Nc1ccc2cc(C(=O)NO)sc2c1` [Compound 91], the IC50 is 0.178 ± 0.0558 µM.

Another test deals with murine erythroleukemia cell line SC9. Put plainly: MTS assay (Cell Titer 96 Aqueous One Solution Cell Proliferation Assay). The settings on record: Mus musculus, SC9, 48 h, Table 3, concentration inhibiting proliferation of SC9 cells, unit inferred, unit nm. In kind it is cell-based. The procedure: The novel compounds of the present invention were tested for their ability to inhibit proliferation of the murine erythroleukemia cell line SC9.
The MTS assay, also referred to as the Cell Titer 96 Aqueous One Solution Cell Proliferation Assay, is a calorimetric method for determining the number of viable cells in proliferation, cytotoxicity or chemosensitivity assays. The MTS reagent contains a novel tetrazolium compound [3-(4,5-dimethylthiazol-2-yl)-5-(3-carboxymethoxyphenyl)-2-(4-sulfophenyl)-2H-tetrazolium, inner salt] and electron coupling reagent (phenazine ethosulfate;PES). Murine erythroleukemia cells (SC-9) were incubated with vehicle or increasing concentrations of compound for 48 hours. Cell proliferation was quantitated by adding a small amount of the MTS reagent directly to culture wells, incubating for 1-4 hours and then recording the absorbance at 490 nm with a 96-well plate reader. The quantity of formazan product, as measured by […] absorbance, is directly proportional to the number of living cells in culture.
In general terms: Formazan colour is commonly taken as a measure of viable cells.
`O=C(CN1CCN(c2ncccn2)CC1)Nc1ccc2cc(C(=O)NO)sc2c1` [Compound 101]: the IC50 is 0.83 ± 0.393 µM.

Compound `COc1ccc(CC(=O)Nc2ccc3cc(C(=O)NO)sc3c2)cc1` [Compound 89] returned an IC50 of 0.205 ± 0.0375 µM.

`O=C(NO)c1cc2cc(CNCCCCc3ccccc3)ccc2s1` [Compound 156] returned an IC50 of 0.966 µM.

`O=C(Cc1ccccc1)Nc1ccc2cc(C(=O)NO)sc2c1` [Compound 6] gave an IC50 of 0.25 ± 0.0572 µM.

`O=C(CN(CC(=O)Nc1ccccc1)c1ccc2cc(C(=O)NO)sc2c1)Nc1ccccc1` [Compound 178] registered an IC50 of 0.2 ± 0.0197 µM.

`COc1cccc(CNCc2ccc3cc(C(=O)NO)sc3c2)c1` [Compound 186]: the IC50 stood at 0.093 µM.

`O=C(Cc1ccc(Cl)cc1)Nc1ccc2cc(C(=O)NO)sc2c1` [Compound 88] displayed an IC50 of 0.238 µM.

Compound `O=C(NO)c1cc2ccc(NS(=O)(=O)c3cccc4ccccc34)cc2s1` [Compound 13] returned an IC50 of 0.441 µM.

`CC(C(=O)Nc1ccc2cc(C(=O)NO)sc2c1)c1ccccc1` (centres unmarked) [Compound 123] returned an IC50 of 0.206 ± 0.0792 µM.

In turn, `O=C(NO)c1cc2ccc(CNCCc3c[nH]c4ccccc34)cc2s1` [Compound 188] had an IC50 of 0.191 µM.

As to `O=C(NO)c1cc2ccc(NS(=O)(=O)c3ccc4ccccc4c3)cc2s1` [Compound 14], the IC50 is 0.917 µM.

`O=C(NO)c1cc2cc(CNCc3ccc(Cl)cc3)ccc2s1` [Compound 153] came in with an IC50 of 0.531 µM.

For the compound `O=C(CN(Cc1ccccc1)Cc1ccccc1)Nc1ccc2cc(C(=O)NO)sc2c1` [Compound 93], the IC50 is 0.751 µM.

`O=C(NO)c1cc2cc(NC(=O)C(c3ccccc3)c3ccccc3)ccc2s1` [Compound 39] came in with an IC50 of 0.666 µM.

In the case of `COc1ccc(CNCc2ccc3sc(C(=O)NO)cc3c2)cc1` [Compound 162], the IC50 was 0.587 µM.

Compound `O=C(CN(CC(=O)Nc1ccccc1)c1ccc2sc(C(=O)NO)cc2c1)Nc1ccccc1` [Compound 177] yielded an IC50 of 0.259 ± 0.0487 µM.

On to `O=C(NO)c1cc2cc(CNCCc3ccccc3)ccc2s1` [Compound 151], for which the IC50 stood at 0.947 µM.

For the compound `O=C(CN1CCN(c2ccccc2Cl)CC1)Nc1ccc2cc(C(=O)NO)sc2c1` [Compound 119], the IC50 was determined as 0.568 ± 0.227 µM.

`O=C(NO)c1cc2ccc(NC(=O)C3(c4ccc(Cl)cc4)CCC3)cc2s1` [Compound 127] displayed an IC50 of 0.935 µM.

For the compound `O=C(NO)c1cc2cc(CNCCc3c[nH]c4ccccc34)ccc2s1` [Compound 145], the IC50 turned out to be 0.99 µM.

`O=C(Cc1cccnc1)Nc1ccc2cc(C(=O)NO)sc2c1` [Compound 110] yielded an IC50 of 0.833 ± 0.065 µM.

As for `O=C(CN1CCN(C(=O)OCc2ccccc2)CC1)Nc1ccc2cc(C(=O)NO)sc2c1` [Compound 91], the IC50 is 0.899 µM.

The test is the same for the next values; noted with them: Table 3; concentration inhibiting proliferation of SC9 cells, 48 hours; unit inferred, unit nm.
On to `CCC(C(=O)Nc1ccc2cc(C(=O)NO)sc2c1)c1ccccc1` (centres unmarked) [Compound 98], for which the IC50 is 0.225 ± 0.0267 µM.

On to `CCC(C(=O)Nc1ccc2cc(C(=O)NO)sc2c1)c1ccccc1` (centres unmarked) [Compound 181], for which the IC50 was 0.528 µM.

Consider `CCC(C(=O)Nc1ccc2cc(C(=O)NO)sc2c1)c1ccccc1` (centres unmarked) [Compound 180], for which the IC50 was 0.14 µM.
